In patent US12637464B2, “Tetracyclic compounds for treating brain disorders” (The Regents of the University of California, priority 2021, dated 2026):

System: PSYLI2 cells
Test: PsychLight assays (agonist and antagonist mode)
Format: cell-based
Conditions: FIG. 3C-3E; agonist mode concentration-response, antagonist mode 1 μM
Method: PsychLight Assays. Psychlight assays were performed using a previously published method. Briefly, glass bottom 96-well plates were coated with 50 μg/mL of poly-D-lysine overnight at room temperature and then washed with Dulbecco's PBS. PSYLI2 cells were suspended in DMEM containing 10% FBS with 5% penicillin-streptomycin, plated at a density of 40,000 cells/well, and incubated (37° C., 5% CO2) for 24 h prior to each experiment. Immediately before an experiment, stock solutions of drugs in DMSO were diluted 1:100 in imaging media distributed across an empty 96-well plate (treatment plate) following a randomized plate map. The imaging media consisted of 1×HBSS containing […] and […]. […] Data were from 2 plates with 2-3 wells being analyzed per plate. […]
Once imaging was complete, the images were exported, and analyzed using a custom Python script. […] The mask was generated by calculating the average fluorescence intensity for the entire image and using that value as a threshold. […] The % ΔF/F values for each well were calculated using the following equation: […]
Once imaging was complete, the images were exported, and analyzed using a custom Python script. […] The mask was generated by calculating the average fluorescence intensity for the entire image and using that value as a threshold. […]

CCN(CC)C(=O)[C@H]1C=C2c3cccc4ccn(c34)C[C@@H]2N(C)C1 [(−)-JRT]
hallucinogenic potential (psychLight): low hallucinogenic potential
